Converted amounts (≈) assume the structure as drawn.
Key:
PAO1 + blaPDC E219K = assay: MIC, broth microdilution; assay type: cell-based; details: Pseudomonas aeruginosa
From the text: (§1) We took advantage of a previously constructed and characterized laboratory collection of recombinant P. aeruginosa PAO1 isolates expressing different blaPDC variants, but specifically enriched for this work with additional variants, following the previously described methodology ([17]). […] The final collection comprised 40 recombinant isolates (20 in PAO1 and 20 in PAO ΔpiuC) producing the wild-type PDC-1 variant from PAO1 and 19 derivatives carrying specific amino acid substitutions previously associated with the development of resistance to ceftazidime/avibactam, ceftolozane/tazobactam, or cefiderocol: T70I, F121L, P153L, G156D, A200T, G202S, ΔG202-E219, G214R, P215L, P215S, ΔP215-G222, D217N, E219K, E219G, E219D, S226ins, L293P, F121L + E219K, and F121L + G222S.
(§2) The MICs of ceftazidime, ceftazidime/avibactam, ceftolozane/tazobactam, cefepime, and cefiderocol were determined in triplicate, for all isolates, by reference broth microdilution assays. Avibactam and tazobactam were fixed at 4 mg/L. All assays were performed using cation-adjusted Mueller-Hinton broth (CAMHB), except for cefiderocol, which was determined in all cases using iron-depleted CAMHB, prepared according to CLSI M100 guidelines ([40]). EUCAST v.15.0 clinical breakpoints and guidelines (http://www.eucast.org/clinical_breakpoints/) were used for reference purposes. Reference strains Escherichia coli ATCC 25922, Klebsiella pneumoniae ATCC 700603, and P. aeruginosa ATCC 27853 were used as controls.

PAO1 + blaPDC ∆P215-G222 = assay: MIC, broth microdilution; assay type: cell-based; details: Pseudomonas aeruginosa, avibactam and tazobactam fixed at 4 mg/L, FDC in iron-depleted CAMHB
From the text: as §1, §2

PAO1 + blaPDC G214R = assay: MIC, broth microdilution; assay type: cell-based; details: Pseudomonas aeruginosa
From the text: as §1, §2

PAO1 + blaPDC P215S = assay: MIC, broth microdilution; assay type: cell-based; details: Pseudomonas aeruginosa
From the text: as §1, §2

PAO1 + blaPDC-1 (WT) = assay: MIC, broth microdilution; assay type: cell-based; details: Pseudomonas aeruginosa, avibactam and tazobactam fixed at 4 mg/L, FDC in iron-depleted CAMHB
From the text: as §1, §2

PAO1 + blaPDC L293P = assay: MIC, broth microdilution; assay type: cell-based; details: Pseudomonas aeruginosa
From the text: as §1, §2

PAO1 + blaPDC E219G = assay: MIC, broth microdilution; assay type: cell-based; details: Pseudomonas aeruginosa
From the text: as §1, §2

PAO1 + blaPDC E219D = assay: MIC, broth microdilution; assay type: cell-based; details: Pseudomonas aeruginosa
From the text: as §1, §2

PAO1 + blaPDC F121L = assay: MIC, broth microdilution; assay type: cell-based; details: Pseudomonas aeruginosa
From the text: as §1, §2

PAO1 + blaPDC S226ins = assay: MIC, broth microdilution; assay type: cell-based; details: Pseudomonas aeruginosa, avibactam and tazobactam fixed at 4 mg/L, FDC in iron-depleted CAMHB
From the text: as §1, §2

PAO1 + blaPDC A200T = assay: MIC, broth microdilution; assay type: cell-based; details: Pseudomonas aeruginosa
From the text: as §1, §2

PAO1 + blaPDC T70I = assay: MIC, broth microdilution; assay type: cell-based; details: Pseudomonas aeruginosa
From the text: as §1, §2

PAO1 + blaPDC G156D = assay: MIC, broth microdilution; assay type: cell-based; details: Pseudomonas aeruginosa
From the text: as §1, §2

PAO1 + blaPDC G202S = assay: MIC, broth microdilution; assay type: cell-based; details: Pseudomonas aeruginosa
From the text: as §1, §2

PAO1 + blaPDC P153L = assay: MIC, broth microdilution; assay type: cell-based; details: Pseudomonas aeruginosa
From the text: as §1, §2

PAO1 + blaPDC P215L = assay: MIC, broth microdilution; assay type: cell-based; details: Pseudomonas aeruginosa
From the text: as §1, §2

PAO1 = assay: MIC, broth microdilution; assay type: cell-based; details: Pseudomonas aeruginosa; PAO1 wild type, no plasmid-borne PDC; avibactam and tazobactam fixed at 4 mg/L; FDC in iron-depleted CAMHB
From the text: as §1, §2

[1] = tested on: PAO1 + blaPDC F121L + E219K; assay: MIC, broth microdilution; assay type: cell-based; details: Pseudomonas aeruginosa
From the text: as §1, §2

PAO1 + blaPDC ∆G202-E219 = assay: MIC, broth microdilution; assay type: cell-based; details: Pseudomonas aeruginosa, avibactam and tazobactam fixed at 4 mg/L, FDC in iron-depleted CAMHB
From the text: as §1, §2

PAO1 + blaPDC D217N = assay: MIC, broth microdilution; assay type: cell-based; details: Pseudomonas aeruginosa
From the text: as §1, §2

[2] = tested on: PAO1 + blaPDC F121L + G220S; assay: MIC, broth microdilution; assay type: cell-based; details: Pseudomonas aeruginosa
PDC E219K = PDC E219K (Pseudomonas aeruginosa, UniProt P24735, E247K); assay: Steady-state kinetics of purified β-lactamase; details: for Km / kcat: PDC E219K, 10 mM PBS, pH 7.4, room temperature; for Km: antibiotics: determined as Ki app with nitrocefin as reporter substrate; for kcat: direct hydrolysis at substrate concentration at least three times the Km; for Ratio for PDC E219K/PDC-1: ratio of kcat/Km (fold change in catalytic efficiency)
PDC L293P = PDC L293P (Pseudomonas aeruginosa, UniProt P24735, L320P); assay: Steady-state kinetics of purified β-lactamase; details: for Km / kcat: PDC L293P, 10 mM PBS, pH 7.4, room temperature; for Km: antibiotics: determined as Ki app with nitrocefin as reporter substrate; for kcat: direct hydrolysis at substrate concentration at least three times the Km; for Ratio for PDC L293P/PDC-1: ratio of kcat/Km (fold change in catalytic efficiency)
PDC-1 (WT) = PDC-1 (WT) (Pseudomonas aeruginosa, UniProt P24735); assay: Steady-state kinetics of purified β-lactamase; details: kcat/Km relative to PDC-1 (reference = 1)
[3] = tested on: CC(C)(O/N=C(\C(=O)N[C@@H]1C(=O)N2C(C(=O)[O-])=C(C[N+]3(CCNC(=O)c4ccc(O)c(O)c4Cl)CCCC3)CS[C@H]12)c1csc(N)n1)C(=O)O; assay: purified protein, by the assay type; details: other: PDC-1 (WT), antibiotics: determined as Ki app with nitrocefin as reporter substrate, 10 mM PBS, pH 7.4, room temperature
[4] = tested on: O=C(Cc1cccs1)N[C@@H]1C(=O)N2C(C(=O)O)=C(/C=C/c3ccc([N+](=O)[O-])cc3[N+](=O)[O-])CS[C@H]12; assay: purified protein, by the assay type; details: other: PDC-1 (WT), antibiotics: determined as Ki app with nitrocefin as reporter substrate, 10 mM PBS, pH 7.4, room temperature
[5] = tested on: CO/N=C(\C(=O)N[C@@H]1C(=O)N2C(C(=O)[O-])=C(C[N+]3(C)CCCC3)CS[C@H]12)c1csc(N)n1; assay: purified protein, by the assay type; details: other: PDC-1 (WT), antibiotics: determined as Ki app with nitrocefin as reporter substrate, 10 mM PBS, pH 7.4, room temperature
[6] = tested on: Cn1c(N)c(NC(=O)NCCN)c[n+]1CC1=C(C(=O)O)N2C(=O)[C@@H](NC(=O)/C(=N\OC(C)(C)C(=O)[O-])c3nsc(N)n3)[C@H]2SC1; assay: purified protein, by the assay type; details: other: PDC-1 (WT), antibiotics: determined as Ki app with nitrocefin as reporter substrate, 10 mM PBS, pH 7.4, room temperature
[7] = tested on: CC(C)(O/N=C(\C(=O)N[C@@H]1C(=O)N2C(C(=O)[O-])=C(C[n+]3ccccc3)CS[C@H]12)c1csc(N)n1)C(=O)O; assay: purified protein, by the assay type; details: other: PDC-1 (WT), antibiotics: determined as Ki app with nitrocefin as reporter substrate, 10 mM PBS, pH 7.4, room temperature

CO/N=C(\C(=O)N[C@@H]1C(=O)N2C(C(=O)[O-])=C(C[N+]3(C)CCCC3)CS[C@H]12)c1csc(N)n1 [FEP, cefepime]
MIC (PAO1 + blaPDC E219K): 32 µg/mL (≈ 66.6 µM)
MIC (PAO1 + blaPDC ∆P215-G222): 32 µg/mL
MIC (PAO1 + blaPDC G214R): 16 µg/mL (≈ 33.3 µM)
MIC (PAO1 + blaPDC P215S): 8 µg/mL (≈ 16.6 µM)
MIC (PAO1 + blaPDC-1 (WT)): 16 µg/mL
MIC (PAO1 + blaPDC L293P): 128 µg/mL (≈ 266 µM)
MIC (PAO1 + blaPDC E219G): 4 µg/mL (≈ 8.32 µM)
MIC (PAO1 + blaPDC E219D): 8 µg/mL (≈ 16.6 µM)
MIC (PAO1 + blaPDC F121L): 16 µg/mL (≈ 33.3 µM)
MIC (PAO1 + blaPDC S226ins): 8 µg/mL
MIC (PAO1 + blaPDC A200T): 16 µg/mL (≈ 33.3 µM)
MIC (PAO1 + blaPDC T70I): 16 µg/mL (≈ 33.3 µM)
MIC (PAO1 + blaPDC G156D): 4 µg/mL (≈ 8.32 µM)
MIC (PAO1 + blaPDC G202S): 16 µg/mL (≈ 33.3 µM)
MIC (PAO1 + blaPDC P153L): 32 µg/mL (≈ 66.6 µM)
MIC (PAO1 + blaPDC P215L): 8 µg/mL (≈ 16.6 µM)
MIC (PAO1): 2 µg/mL
MIC [1]: 32 µg/mL (≈ 66.6 µM)
MIC (PAO1 + blaPDC ∆G202-E219): 8 µg/mL
MIC (PAO1 + blaPDC D217N): 16 µg/mL (≈ 33.3 µM)
MIC [2]: 32 µg/mL (≈ 66.6 µM)
Km (PDC E219K): 92.5 ± 26.3 µM
kcat (PDC E219K): 0.25 ± 0.06 s⁻¹
Ratio for PDC E219K/PDC-1 (PDC E219K): 2.57
improvement in substrate binding affinity (Km decrease) (PDC L293P; PDC L293P relative to PDC-1): ≈ 29 fold
Km (PDC L293P): 4.58 ± 0.42 µM
kcat (PDC L293P): 0.189 ± 0.007 s⁻¹
Ratio for PDC L293P/PDC-1 (PDC L293P): 39.29
Ratio (PDC-1 (WT)): 1

O=C(Cc1cccs1)N[C@@H]1C(=O)N2C(C(=O)O)=C(/C=C/c3ccc([N+](=O)[O-])cc3[N+](=O)[O-])CS[C@H]12 [Nitrocefin, nitrocefin]
Km (PDC E219K): 24.1 ± 4.01 µM
kcat (PDC E219K): 4.41 ± 0.18 s⁻¹
Ratio for PDC E219K/PDC-1 (PDC E219K): 0.12
Km (PDC L293P): 6.71 ± 1.28 µM
kcat (PDC L293P): 18.77 ± 4.37 s⁻¹
Ratio for PDC L293P/PDC-1 (PDC L293P): 1.80
Ratio (PDC-1 (WT)): 1

PDC-1 (WT) (Pseudomonas aeruginosa PAO1)
Km [3]: 85.29 ± 9.48 µM
kcat [3]: 0.0036 ± 0.0007 s⁻¹
kcat/Km [3]: 40 M⁻¹ s⁻¹
Km [4]: 13.98 ± 0.80 µM
kcat [4]: 21.9 ± 6.5 s⁻¹
kcat/Km [4]: 1.55e+06 ± 380000 M⁻¹ s⁻¹
Km [5]: 132.06 ± 23.69 µM
kcat [5]: 0.138 ± 0.009 s⁻¹
kcat/Km [5]: 1050 M⁻¹ s⁻¹
Km [6]: 554.08 ± 3.00 µM
kcat [6]: 0.0715 ± 0.0006 s⁻¹
kcat/Km [6]: 130 M⁻¹ s⁻¹
Km [7]: 18.08 ± 0.88 µM
kcat [7]: 0.0082 ± 0.0007 s⁻¹
kcat/Km [7]: 450 M⁻¹ s⁻¹
